{"source": "patent US8912120B2", "about": "“Herbicidal compositions comprising 4-amino-3-chloro-5-fluoro-6-(4-chloro-2-fluoro-3-methoxyphenyl) pyridine-2-carboxylic acid or a derivative thereof and synthetic auxin herbicides” (Dow AgroSciences, LLC., priority 2012, dated 2014)", "key": {"ECHOR": {"system": "ECHOR", "assay": "Example II: in-water applied herbicidal mixtures, transplanted paddy rice, ECHOR", "format": "in vivo, Echinochloa oryzoides (early watergrass)", "conditions": "for Visual Weed Control (%) - 22 DAA ECHOR Obs / Visual Weed Control (%) - 20 DAA ECHOR Obs: in-water application", "description": "(§1) The prepared mud was dispensed in 365 mL aliquots into 16-ounce (oz.) non-perforated plastic pots with a surface area of 86.59 square centimeters (cm^2) leaving a headspace of 3 centimeters (cm) in each pot Mud was allowed to dry overnight prior to planting or transplanting. Rice seeds were planted in Sun Gro MetroMix® 306 planting mixture, which typically has a pH of 6.0 to 6.8 and an organic matter content of about 30 percent, in plastic plug trays. Seedlings at the second or third leaf stage of growth were transplanted into 840 mL of mud contained in 32-oz. non-perforated plastic pots with a surface area of 86.59 cm^2 4 days prior to herbicide application. […] Nutrients were added as Osmocote® (19:6:12, N:P:K^+ minor nutrients) at 2 g per 16-oz. pot and 4 g per 32-oz. pot.\n(§2) Applications were made by injecting with a pipetter appropriate amounts of the application solutions, individually and sequentially, into the aqueous layer of the paddy. Control plants were treated in the same manner with the solvent blank. Applications were made so that all treated plant material received the same concentrations of acetone and crop oil concentrate."}, "LEFCH": {"system": "LEFCH", "assay": "Example II: in-water applied herbicidal mixtures, transplanted paddy rice, LEFCH", "format": "in vivo, Leptochloa chinensis (Chinese sprangletop)", "conditions": "19 DAA; 35 gae/ha", "description": "as §1, §2"}, "SCPMA": {"system": "SCPMA", "assay": "Example II: in-water applied herbicidal mixtures, transplanted paddy rice, SCPMA", "format": "in vivo", "conditions": "for Visual Weed Control (%) Obs: 20 DAA", "description": "as §1, §2"}, "ECHCG [1]": {"system": "ECHCG", "assay": "Example I: postemergence foliar-applied herbicidal mixtures, direct seeded rice, ECHCG", "conditions": "16 gae/ha"}, "CENMA": {"system": "CENMA", "assay": "Example V: postemergence herbicidal activity of mixtures in forage crops, CENMA", "format": "in vivo, Centaurea maculosa (spotted knapweed)", "conditions": "alone, foliar, approximately 21 days", "description": "(§3) Seeds or root cuttings of the desired test plant species were planted in Sun Gro MetroMix® 306 planting mixture, which typically has a pH of 6.0 to 6.8 and an organic matter content of about 30 percent, in plastic pots with a surface area of 126.6 square centimeters (cm^2). […] The plants were grown for 14-60 days in a greenhouse with an approximate 14 hour photoperiod which was maintained at approximately 28° C. during the day and 24° C. during the night.\n(§4) Spray solutions of the second herbicide or experimental compound mixtures were prepared by adding the stock solutions to the appropriate amount of dilution solution to form 12 mL spray solution with active ingredients in two-way combinations."}, "SINAR": {"system": "SINAR", "assay": "Example V: postemergence herbicidal activity of mixtures in forage crops, SINAR", "format": "in vivo, Sinapis arvensis (wild mustard)", "conditions": "alone, foliar, approximately 21 days", "description": "as §3, §4"}, "TRFRE": {"system": "TRFRE", "assay": "Example V: postemergence herbicidal activity of mixtures in forage crops, TRFRE", "format": "in vivo, Trifolium repens (white clover)", "conditions": "alone, foliar, approximately 21 days", "description": "as §3, §4"}, "BRSNN": {"system": "BRSNN", "assay": "Example IV: postemergence foliar-applied herbicidal mixtures, cereal crops, BRSNN", "format": "in vivo, Brassica napus (volunteer canola)", "description": "as §3, with “Seeds” for “Seeds or root cuttings”, “MetroMix” for “MetroMix®”, “103.2” for “126.6”, “7-36” for “14-60”, “about 18°” for “approximately 28°”, “17°” for “24°”\n(§5) Spray solutions of the second cereal herbicide and experimental compound mixtures were prepared by adding the stock solutions to the appropriate amount of dilution solution to form 12 mL spray solution with active ingredients in two- and three-way combinations."}, "VIOTR": {"system": "VIOTR", "assay": "Example IV: postemergence foliar-applied herbicidal mixtures, cereal crops, VIOTR", "format": "in vivo, Viola tricolor (wild pansy)", "conditions": "after 20-22 days; 140 gai/ha", "description": "as §3, with “Seeds” for “Seeds or root cuttings”, “MetroMix” for “MetroMix®”, “103.2” for “126.6”, “7-36” for “14-60”, “about 18°” for “approximately 28°”, “17°” for “24°”\nas §5"}, "CYPRO": {"system": "CYPRO", "assay": "Example II: in-water applied herbicidal mixtures, weed control in transplanted paddy rice (greenhouse), CYPRO", "format": "in vivo, Cyperus rotundus (purple nutsedge)", "conditions": "in-water application", "description": "as §1, §2"}, "ECHCG [2]": {"system": "ECHCG", "assay": "Example II: in-water applied herbicidal mixtures, transplanted paddy rice, ECHCG", "format": "in vivo, Echinochloa crus-galli (barnyardgrass)", "conditions": "in-water application", "description": "as §1, §2"}, "CASOB": {"system": "CASOB", "assay": "Example V: postemergence herbicidal activity of mixtures in forage crops (greenhouse), CASOB", "format": "in vivo, Cassia obtusifolia (sicklepod)", "conditions": "alone, 50 gae/ha, foliar, approximately 21 days", "description": "as §3, §4"}}, "note": "Structures can show the parent of a compound that is named as a salt."}
{"smiles": "CCCCOC(=O)c1nc(-c2ccc(Cl)c(OC)c2F)c(F)c(N)c1Cl", "note": "[Compound A n-Butyl Ester]", "values": [{"measurement": "Visual Weed Control (%) Obs", "setting": "ECHOR; 19 DAA, 35 gae/ha", "value": 80, "unit": "%"}, {"measurement": "Visual Weed Control (%) Obs", "setting": "LEFCH", "value": 43, "unit": "%"}, {"measurement": "Visual Weed Control (%) Obs", "setting": "SCPMA; 35 gae/ha", "value": 0, "unit": "%"}, {"measurement": "Visual Weed Control (%) Obs", "setting": "SCPMA; 70 gae/ha", "value": 0, "unit": "%"}, {"measurement": "Visual Weed Control (%) - 19 DAA ECHCG Obs", "setting": "ECHCG [1]", "value": 65, "unit": "%"}]}
{"smiles": "Nc1nc(C2CC2)nc(C(=O)O)c1Cl", "note": "[Aminocyclopyrachlor, 6-amino-5-chloro-2-cyclopropyl-4-pyrimidinecarboxylic acid, reference compound]", "values": [{"measurement": "CENMA Obs (observed value)", "setting": "CENMA; 8.75 gae/ha", "value": 55, "unit": "%"}, {"measurement": "CENMA Obs (observed value)", "setting": "CENMA; 17.5 gae/ha", "value": 60, "unit": "%"}, {"measurement": "SINAR Obs (observed value)", "setting": "SINAR; 8.75 gae/ha", "value": 25, "unit": "%"}, {"measurement": "SINAR Obs (observed value)", "setting": "SINAR; 17.5 gae/ha", "value": 45, "unit": "%"}, {"measurement": "TRFRE Obs (observed value)", "setting": "TRFRE; 8.75 gae/ha", "value": 45, "unit": "%"}, {"measurement": "TRFRE Obs (observed value)", "setting": "TRFRE; 17.5 gae/ha", "value": 55, "unit": "%"}]}
{"smiles": "Cc1cc(Cl)ccc1O[C@H](C)C(=O)O", "note": "[Mecoprop, (2R)-2-(4-chloro-2-methylphenoxy)propanoic acid]", "values": [{"measurement": "BRSNN Ob (observed value)", "setting": "BRSNN; alone, 200 gai/ha, foliar, 20-22 days", "value": 70, "unit": "%"}]}
{"smiles": "C[C@@H](Oc1ccc(Cl)cc1Cl)C(=O)O", "note": "[Dichlorprop-P, (2R)-2-(2,4-dichlorophenoxy)propanoic acid]", "values": [{"measurement": "Weed Control Ob", "setting": "VIOTR", "value": 27, "unit": "%"}, {"measurement": "Weed Control Ob", "setting": "BRSNN; after 20-22 days, 140 gai/ha", "value": 57, "unit": "%"}]}
{"smiles": "Nc1c(Cl)c(Cl)nc(C(=O)[O-])c1Cl.[K+]", "note": "[Picloram K^+ Salt]", "values": [{"measurement": "CENMA Obs (observed value)", "setting": "CENMA; 35 gae/ha", "value": 20, "unit": "%"}, {"measurement": "CENMA Obs (observed value)", "setting": "CENMA; 70 gae/ha", "value": 50, "unit": "%"}, {"measurement": "SINAR Obs (observed value)", "setting": "SINAR; 35 gae/ha", "value": 30, "unit": "%"}, {"measurement": "SINAR Obs (observed value)", "setting": "SINAR; 70 gae/ha", "value": 70, "unit": "%"}]}
{"smiles": "CCCCC(CC)COC(=O)COc1ccc(Cl)cc1Cl", "note": "(stereo not drawn) [2,4-D EHE, 2-ethylhexyl 2-(2,4-dichlorophenoxy)acetate, reference compound]", "values": [{"measurement": "Visual Weed Control (%) - 22 DAA CYPRO Obs", "setting": "CYPRO; 140 gae/ha", "value": 0, "unit": "%"}, {"measurement": "Visual Weed Control (%) - 22 DAA CYPRO Obs", "setting": "CYPRO; 280 gae/ha", "value": 0, "unit": "%"}, {"measurement": "Visual Weed Control (%) - 22 DAA ECHOR Obs", "setting": "ECHOR; 140 gae/ha", "value": 0, "unit": "%"}, {"measurement": "Visual Weed Control (%) - 22 DAA ECHOR Obs", "setting": "ECHOR; 280 gae/ha", "value": 0, "unit": "%"}, {"measurement": "Visual Weed Control (%) - 22 DAA ECHCG Obs", "setting": "ECHCG [2]; 140 gae/ha", "value": 0, "unit": "%"}, {"measurement": "Visual Weed Control (%) - 22 DAA ECHCG Obs", "setting": "ECHCG [2]; 280 gae/ha", "value": 0, "unit": "%"}]}
{"smiles": "O=C(O)COc1ccc(Cl)cc1Cl", "note": "[2,4-D Choline Salt, 2-hydroxy-N,N,N-trimethylethanaminium 2-(2,4-dichlorophenoxy)acetate, reference compound]", "values": [{"measurement": "Visual Weed Control (%) - 20 DAA CYPRO Obs", "setting": "CYPRO; 240 gae/ha", "value": 30, "unit": "%"}, {"measurement": "Visual Weed Control (%) - 20 DAA CYPRO Obs", "setting": "CYPRO; 480 gae/ha", "value": 30, "unit": "%"}, {"measurement": "CASOB Obs (observed value)", "setting": "CASOB", "value": 3, "unit": "%"}, {"measurement": "Visual Weed Control (%) - 20 DAA ECHOR Obs", "setting": "ECHOR; 240 gae/ha", "value": 0, "unit": "%"}, {"measurement": "Visual Weed Control (%) - 20 DAA ECHOR Obs", "setting": "ECHOR; 480 gae/ha", "value": 20, "unit": "%"}, {"measurement": "Visual Weed Control (%) - 20 DAA SCPMA Obs", "setting": "SCPMA; 240 gae/ha, in-water application", "value": 0, "unit": "%"}]}
